The source of these data is patent publication US20220072101A1, “HARNESSING INFLAMMATION TO TREAT NEURODEVELOPMENTAL DISORDERS” (President and Fellows of Harvard College, priority 2019, published 2022).

Format in all cases: in vivo, mouse
Experiment [1] concerns Cntnap2, Fmr1, and Shank3 mutant mice. As to the kind of experiment: Three-chamber social approach assay in monogenic mutant mice. The note with it: Cntnap2, Fmr1 and Shank3 mutant mice; LPS i.p.; 4 hours. On the procedure: All experiments were performed according to Guide for the Care and Use of Laboratory Animals and were approved by the National Institutes of Health and the Committee on Animal Care at Massachusetts Institute of Technology. C57BL/6 were purchased from Taconic Biosciences for generating PBS and MIA offspring. Vgat-Cre (028862) were purchased from Jackson Laboratories and inbred. For monogenic experiments, C57BL/6, Cntnap2 (017482), Fmr1 (003025), and Shank3 (017688) mice were purchased from Jackson Laboratories and inbred after colonizing with SFB from donor mice. IL-17Ra^fl/fl and IL-17RaKO were previously described^24,25. All mice were males aged 2-5 months, unless otherwise specified.
(§1) Adult male mice were assayed for sociability using a three-chamber social approach assay. The arena was constructed of white acrylic (50 cm×35 cm×30 cm). Wire cups (Spectrum Diversified®) were placed in the back left and right corner of the arena beneath water-filled 1 L bottles (Nalgene®). On day 0, mice were habituated to the arena for 10 min. Immediately following habituation, mice were singly housed. On day 1 (Pre), mice were placed in the center of the arena and allowed to freely explore. Following 10 min, mice were confined to the center of the arena. An inanimate object (rubber stopper) or a male conspecific were placed beneath the wire cups. Placement of the inanimate object and social target were alternated. Mice were then allowed to freely explore the arena for 10 min. Interaction time was defined as time spent in the areas circumscribing the wire cups (<2 cm). Sociability was defined as interaction time with the social target divided by total interaction time and expressed as a percentage. For experiments involving LPS injections, mice were injected with either saline (Veh) or LPS ([…], i.p., L2630, Sigma) on day 2 (Test), four hours prior to testing. For the experiment assaying sociability 72 hrs following LPS injection, mice used for 4 hr LPS sociability experiments were tested for sociability again at 72 hrs. […]

A further experiment has as its system BBB. As to the kind of experiment: BBB permeability (Evans blue). Here is the method: BBB permeability was assessed with Evans blue (Sigma Aldrich®). The Evans blue dye binds to serum albumin (69,000 Da) to become a high-molecular-weight protein tracer. Mice were injected with 100 μl of Evans blue solution (10 mg/kg in PBS) intravenously. After 30 min, all injected mice were sacrificed. Whole brains were then removed and photographed. The brain tissues were disrupted in lysis buffer at full speed for 60 seconds using a Micro-Homogenizer (VWR International®). The fluorescence was determined using a Spectrophotometer (BioTek Instruments®) with excitation at 620 nm and emission at 680 nm.

For experiment [2], the system named is MIA offspring. The experiment is described as follows: Three-chamber social approach assay in PBS and MIA offspring. On the procedure: as §1, with “Day” for “day”, “with” for “with either saline (Veh) or”, “testing.” for “testing. For the experiment assaying sociability 72 hrs following LPS injection, mice used for 4 hr LPS sociability experiments were tested for sociability again at 72 hrs.”
Adult male mice were implanted with cannula into S1DZ and allowed to recover for >2 weeks prior to behavioral experiments. On Day 1 (Pre) mice were assayed for sociability. On Day 2 (Test), mice were anesthetized briefly using isoflurane and either vehicle or IL-17a (50 ng/side in 1 μl at a rate of 180 nl/min, 7956-ML/CF, R&D®) was administered bilaterally into S1DZ through 250 μm-projecting injector tips (PlasticsOne®). Four hours after vehicle or IL-17a administration, mice were assayed for sociability. Cannula placements were verified using histology.
Adult male mice were assayed for sociability using a three-chamber social approach assay. The arena was constructed of white acrylic (50 cm×35 cm×30 cm). Wire cups (Spectrum Diversified®) were placed in the back left and right corner of the arena beneath water-filled 1 L bottles (Nalgene®). On day 0, mice were habituated to the arena for 10 min. Immediately following habituation, mice were singly housed. On day 1 (Pre), mice were placed in the center of the arena and allowed to freely explore. Following 10 min, mice were confined to the center of the arena. An inanimate object (rubber stopper) or a male conspecific were placed beneath the wire cups. Placement of the inanimate object and social target were alternated. Mice were then allowed to freely explore the arena for 10 min. Interaction time was defined as time spent in the areas circumscribing the wire cups (<2 cm). Sociability was defined as interaction time with the social target divided by total interaction time and expressed as a percentage. For experiments involving LPS injections, mice were injected with either saline (Veh) or LPS ([…], i.p., L2630, Sigma) on day 2 (Test), four hours prior to testing. For the experiment assaying sociability 72 hrs following LPS injection, mice used for 4 hr LPS sociability experiments were tested for sociability again at 72 hrs.
Adult male Vgat-Cre MIA offspring were bilaterally injected with virus encoding the inhibitory DREADD receptor fused to mCherry into the vLPO. Following >3 weeks of recovery, mice were assayed on the three-chamber social approach assay outlined above. Baseline sociability was assayed on day 1 (Pre). On day 2 and day 3, mice were injected with either Saline (Veh) or CNO (1.5 mg/kg i.p., BML-NS105, Enzo Life Sciences®), two hours prior to initiation of behavior. Injection order was counterbalanced. Following behavioral experiments, post-mortem histology was used to confirm mCherry expression within the vLPO. For experiments assaying the effect of CNO and LPS injection in Vgat-Cre PBS and MIA offspring that have not undergone surgery, baseline sociability was assessed on day 1. On day 2 and 3 mice received counterbalanced injections of CNO or vehicle. On day 4, mice were injected with LPS. […]

For experiment [3], the system named is MIA offspring. As to the kind of experiment: Reciprocal social interaction assay. The note with it: four hours after LPS. Here is the method: Four hours prior to testing, mice were injected with vehicle or LPS. Two unfamiliar mice of the same treatment and background were placed in a fresh mouse cage and allowed to freely interact for 10 min. Videos were acquired using IC Capture (The Imaging Source®) at 640×480 aspect ratio and 25 fps. Social interaction (close following, push-crawl, nose-nose sniffing, and nose-anus sniffing) was scored by an observer blind to treatment and background^27.

Entries after “also recorded” stand apart in the source; their conditions may differ.

On to lipopolysaccharide [LPS], for which the “sociability after LPS” value in experiment [1] was “failed to restore sociability in mutant mice deficient for Cntnap2, Fmr1, and Shank3”. The “BBB permeability (leakage of i.v. Evans Blue into the brain)” value with BBB (MIA offspring, LPS 3.5 hr before Evans Blue) is on record as “can increase BBB permeability”. Moreover, the “LPS-induced increase in EB leakage in knockout animals” value with BBB (animals genetically deficient for IFNγ or IL-17a) is on record as “prevented in animals genetically deficient for IFNγ, but not IL-17a”. For the same substance, the sociability deficits result in the experiment with MIA offspring [2] (IFNγ or IL-17a knockout (KO) MIA offspring, LPS i.p., 4 hours) was “failed to rescue the sociability deficits in IFNγ or IL-17a knockout (KO) MIA offspring”. For the same substance, the “LPS-induced rescue of sociability by age” value in the experiment on MIA offspring [2] (MIA mice, young (2-5 months) and aged (9-12 month), 4 hr after LPS) is “observed in both young (2-5 months) and aged (9-12 month) mice; also recorded: effective in aged mice”. In addition, the “sociability (deficit in sociability)” value in the experiment on MIA offspring [2] (MIA offspring (WT), LPS 50 μg/kg i.p., 4 hours after injection) is “temporarily rescued; also recorded: robustly rescued their characteristic deficits in sociability; also recorded: restored sociability; also recorded: rescues sociability deficits in MIA offspring”. The sociability entry in the experiment on MIA offspring [2] (MIA offspring deficient for IL-17Ra in the S1DZ (IL-17Ra fl/fl; EGFP:nCre), LPS i.p., 4 hours) was “failed to restore sociability”. In the experiment with MIA offspring [2] (MIA offspring, 72 hours after LPS treatment), the “sociability rescue 72 hours following LPS” value is “behavioral rescue was absent 72 hours following LPS treatment; also recorded: absent 72 hours following the treatment; also recorded: transient”. The baseline sociability entry in the experiment on MIA offspring [2] (PBS (control) offspring, LPS i.p., 4 hours after injection) is “Neither vehicle nor LPS injection affected baseline sociability in PBS offspring; also recorded: did not affect baseline sociability in control offspring”. The “sociability in MIA Vgat-Cre mice” value in the experiment with MIA offspring [2] (Vgat-Cre MIA offspring without surgery, CNO 1.5 mg/kg i.p. or LPS) is recorded as “showed an increase in sociability upon LPS treatment”. In addition, in the experiment with MIA offspring [3], the reciprocal social interaction entry is listed as “rescue of MIA sociability deficits was also evident”.
